Laboratory results published in PubChem BioAssay (NCI).
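In this assay, cells in 96-well plates receive the compound at five concentrations for 48 hours. Endpoints are linearly interpolated between the surrounding concentrations. The concentration for full growth arrest is given as TGI.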 Where a SMILES comes first, the peptide text is derived from it. [ ]: non-standard residue; d: D form. pGlu = O=C1CC[CH](C(=O)O)N1

How the values were obtained:
Experiment in all cases: NCI tumour cell line growth inhibition, 48 h
A498 renal = test system: A498 renal
A549 NSCLC = test system: A549 NSCLC
HS 578T breast = test system: HS 578T breast
IGROV1 ovarian = test system: IGROV1 ovarian
M14 melanoma = test system: M14 melanoma
MDA-N = test system: MDA-N
NCI-H226 lung = test system: NCI-H226 lung
NCI-H460 lung = test system: NCI-H460 lung
NCI/ADR-RES ovarian = test system: NCI/ADR-RES ovarian
OVCAR-8 ovarian = test system: OVCAR-8 ovarian
TK-10 renal = test system: TK-10 renal
U251 CNS = test system: U251 CNS

Structure (SMILES) | TGI (A498 renal) [µM] | TGI (A549 NSCLC) [µM] | TGI (HS 578T breast) [µM] | TGI (IGROV1 ovarian) [µM] | TGI (M14 melanoma) [µM] | TGI (MDA-N) [µM] | TGI (NCI-H226 lung) [µM] | TGI (NCI-H460 lung) [µM] | TGI (NCI/ADR-RES ovarian) [µM] | TGI (OVCAR-8 ovarian) [µM] | TGI (TK-10 renal) [µM] | TGI (U251 CNS) [µM]
COC(NC(=O)Nc1ccc(C)cc1)(C(F)(F)F)C(F)(F)F | 90.1 | > 100 | > 100 | > 100 | > 100 | 94.6 | > 100 | > 100 | 84.7 | 78.5 | > 100 | 45
COC(=O)[C@H](Cc1ccccc1)NC(=O)c1ccc(CNC(=O)/C=C/c2ccc(OCc3ccccc3)cc2)cc1 | 21.4 | > 72.7 | 21.1 | 9.66 | 7.38 | 5.43 | 49.8 | > 100 | > 78 | 36.4 | 32 | > 75.4
CC(C)(C)C1=C(Br)C(F)(C(C)(C)C)OP1(=O)c1ccccc1 (configuration not stated) | 40 | 36.3 | 53.8 | 29.7 | 28.5 | 34.7 | 31 | 35.6 | 30.8 | 36.4 | 33.1 | 31.3
C=C1C2CCC3C4(C)CCCC(C)(C(=O)O)C4CCC3(C2)C1OC(=O)/C(C)=C/C (configuration not stated) | 60.4 | > 100 | > 100 | > 100 | 45.1 | 68.2 | > 100 | > 100 | 53.6 | > 100 | > 100 | > 100
CC(NC1=NCCO1)c1ccccc1Cl (configuration not stated) | > 100 | > 100 | > 100 | > 100 | > 100 | > 100 | > 100 | > 100 | > 100 | > 100 | > 100 | > 100
COc1ccc(/[N+]([O-])=C/c2ccc(OC(=S)S)c(OC)c2)cc1 | > 100 | > 100 | > 100 | > 100 | > 100 | > 100 | > 100 | > 100 | 92.3 | > 100 | > 100 | > 100
NS(=O)(=O)c1ccc(NC(=O)N/N=C/c2ccccc2[N+](=O)[O-])cc1 | > 100 | > 100 | > 100 | > 100 | 85.3 | 39 | > 100 | > 100 | > 100 | > 100 | > 100 | > 100
CO/C=C(/C(=O)OC)[C@@H]1C[C@@H]1c1ccc2ccccc2c1 | > 100 | 57.4 | > 100 | 70.7 | 71.9 | 65.2 | > 100 | > 100 | 65.3 | > 100 | > 100 | > 100
O=c1onc2n1-c1ccc(Cl)cc1C(=S)N1CSCC21 (configuration not stated) | 64 | > 100 | 53.9 | > 100 | 28.8 | 23.7 | 83.1 | 40 | 36.4 | 39.8 | > 100 | 35.9
CN(C)Cc1cc(Cl)c(O)c(CN(C)C)c1 | > 100 | > 100 | > 100 | > 100 | > 100 | > 100 | > 100 | > 100 | > 100 | > 100 | > 100 | > 100
CC(NC(=O)C1CCC(=O)N1)C(=O)N1CCCC1C(N)=O (stereo not drawn) ([pGlu]-Ala-Pro-NH2; configuration not given here) | > 100 | > 100 | > 100 | > 100 | > 100 | > 100 | > 100 | > 100 | > 100 | > 100 | > 100 | > 100
C#C[C@]1(O)CC[C@H]2[C@@H]3CCC4=C/C(=N\OCCN5CCCCC5)CC[C@]4(C)[C@H]3CC[C@@]21C | 20.5 | 22.7 | 8.86 | 19.1 | 10.2 | 4.21 | 39.5 | 27.4 | 15.4 | 21.2 | 22.3 | 33.6
COc1ccc2c(c1)c1c3c(ccc4ncn2c43)N(CCO)CCN=1 | 0.382 | 2.22 | 0.605 | 5.53 | 0.772 | 0.808 | 0.522 | 0.484 | 1.76 | 1.72 | 2.23 | 1.09
O=C(Nc1ccccc1)N(CCN(Cc1ccccc1)C(=O)Nc1ccccc1)CCN(Nc1ccccc1)C(=O)Nc1ccccc1 | > 100 | > 100 | > 100 | > 100 | > 100 | > 100 | > 100 | > 100 | > 100 | > 100 | > 100 | > 100
C(=N\c1nc2cc3sc(/N=C/c4ccccc4)nc3cc2s1)/c1ccccc1 | > 100 | > 100 | 97.4 | > 100 | > 100 | > 100 | > 74 | > 100 | > 100 | > 100 | > 100 | > 100
O=c1[nH]c(NCc2cccnc2)nc2nc[nH]c12 | > 100 | > 100 | > 100 | > 100 | > 100 | > 100 | > 100 | > 100 | > 100 | > 100 | > 100 | > 100
CCOC(=O)c1c(O)cn2c1[nH]c1cccc3cccc2c31 | > 100 | > 100 | > 100 | > 100 | > 100 | > 100 | > 100 | > 100 | > 100 | > 100 | > 100 | > 100
CC1C(C)(C)C23CC12C1(OCCO1)C3Br (configuration not stated) | > 100 | > 100 | > 100 | > 100 | > 100 | > 100 | > 100 | > 100 | > 100 | > 100 | > 100 | > 100

Structure (SMILES) | TGI (A498 renal) [µM] | TGI (A549 NSCLC) [µM] | TGI (HS 578T breast) [µM] | TGI (IGROV1 ovarian) [µM] | TGI (M14 melanoma) [µM] | TGI (MDA-N) [µM] | TGI (NCI-H226 lung) [µM] | TGI (NCI-H460 lung) [µM] | TGI (NCI/ADR-RES ovarian) [µM] | TGI (OVCAR-8 ovarian) [µM] | TGI (TK-10 renal) [µM] | TGI (U251 CNS) [µM]
C[C@H](Nc1nc(N)c(N=O)c(=O)n1C)C(=O)O | > 10 | > 10 | > 10 | > 10 | > 10 | > 10 | > 10 | > 10 | > 10 | > 10 | > 10 | > 10
S=C(NCc1ccccc1)Nc1sc(=NCc2ccccc2)nc2sc3c(c12)CCN(N1CCc2c(sc4nc(=NCc5ccccc5)sc(NC(=S)NCc5ccccc5)c24)C1)C3 | > 67.6 | > 62.9 | > 100 | > 100 | > 65.4 | > 58.2 | 99.7 | > 83.9 | > 100 | > 100 | > 90.3 | > 47.5
O=c1[nH]c(Nc2ccc(Br)c(C(F)(F)F)c2)nc2nc[nH]c12 | > 100 | > 100 | 45.6 | > 100 | > 100 | > 100 | > 100 | > 100 | > 100 | > 100 | > 100 | > 100
CCOC(=O)CNC(=O)C(CCC(=O)N(C)O)NC(=O)CCC(N)C(=O)O (configuration not stated) | > 100 | > 100 | > 100 | > 100 | > 100 | > 100 | > 100 | > 100 | > 100 | > 100 | > 100 | > 100
COc1c2c(c3c(c1OC)c(=O)c1ccccc1n3C)OCO2 | > 100 | > 100 | > 100 | > 100 | > 100 | > 100 | > 100 | > 100 | > 100 | > 100 | > 100 | > 100
COc1ccc(S(=O)(=O)Nc2ccc(-c3csc(N4C(=O)/C(=C/c5ccccc5[N+](=O)[O-])N=C4c4ccccc4)n3)cc2)cc1Cl | 59.8 | > 100 | > 100 | > 100 | > 100 | > 100 | > 100 | > 100 | > 100 | > 100 | > 100 | > 100
CCn1c(SCC(=O)N/N=C2\SCC(=O)N2c2ccc(C)cc2)nc2ccccc2c1=O | 38.4 | 43.3 | 41.7 | 43.2 | > 100 | 53.4 | 64.8 | 57.4 | 49.7 | 35.5 | 31 | 46.1
COC(=O)C1=C(C)NC(=O)N2[C@@H](CCOCc3ccccc3)CC[C@@H]12 | > 50 | > 50 | > 50 | > 50 | > 50 | > 50 | > 50 | > 50 | > 50 | > 50 | > 50 | > 50
Cc1c(NC(=S)Nc2ccc([N+](=O)[O-])cc2)c(=O)n(-c2ccccc2)n1C | > 100 | > 100 | > 100 | > 100 | > 100 | > 100 | > 100 | > 100 | > 100 | > 100 | > 100 | > 100
C=C1C(C(=O)OC)[C@H]1C(=O)OC (some centres not stated) | > 100 | > 100 | > 100 | > 100 | > 100 | > 100 | > 100 | > 100 | > 100 | > 100 | > 100 | > 100
O=C(Cc1ccc2ccccc2c1)NCc1ccc(C(=O)NCCc2ccccc2)cc1 | > 100 | > 100 | > 100 | > 100 | > 100 | > 100 | > 100 | > 100 | > 100 | > 100 | > 100 | > 100
COC(=O)Nc1nc2ccc(NS(=O)(=O)c3cccs3)cc2[nH]1 | 91.7 | > 100 | 36.4 | 39.7 | 76 | 16.8 | > 100 | > 100 | 85.3 | > 100 | 68 | > 100
Nc1ncnc2c1ncn2[C@H]1C=C[C@@H](NO)C1 | > 100 | > 100 | > 100 | > 100 | > 100 | > 100 | > 100 | > 100 | > 100 | > 100 | > 100 | > 100
Cc1ccc(S(=O)(=O)n2cc(C=O)c(-c3cn(S(=O)(=O)c4ccc(C)cc4)cc3-c3cn(S(=O)(=O)c4ccc(C)cc4)cc3C=O)c2)cc1 | > 100 | > 100 | > 100 | > 100 | > 100 | > 100 | > 100 | > 100 | > 100 | > 100 | 72 | > 100
CC(C)C1CSC2N1C(=O)C2(OCc1ccccc1)C1CC1 (configuration not stated) | > 100 | > 100 | > 100 | > 100 | > 100 | > 100 | > 100 | > 100 | > 100 | > 100 | > 100 | > 100
NCC(=O)Nc1ccccc1 | > 100 | > 100 | > 100 | > 100 | > 100 | > 100 | > 100 | > 100 | > 100 | > 100 | > 100 | > 100
CCCCSC1=N/C(=C\c2ccccc2O)C(=O)N1 | > 100 | > 100 | > 100 | > 100 | > 100 | > 100 | > 100 | > 100 | > 100 | > 100 | > 100 | > 100
CN(O)C(=O)CCC(NC(=O)CCC(N)C(=O)O)C(=O)NCC(=O)O (configuration not stated) | > 100 | > 100 | > 100 | > 100 | > 100 | > 100 | > 100 | > 100 | > 100 | > 100 | > 100 | > 100
